{"source": "patent US12285434B2", "about": "“Therapeutic, preventive, or improvement agent for inflammatory disease and allergic disease” (The University of Tokyo, priority 2018, dated 2025)", "key": {"[1]": {"system": "HUVECs", "assay": "Endothelial barrier function: transendothelial electrical resistance (TER)", "format": "cell-based, human", "protocol": "(§1) In Examples 4 to 6, human umbilical vein endothelial cells (hereinafter, sometimes referred to as “HUVECs”, manufactured by Lonza) were cultured in EGM-2 (manufactured by Lonza K.K.). These cells (passages 4 to 9) were used for experiments after 4-hour starvation in EBM-2 (manufactured by Lonza K.K.) containing 2% FBS.\nThe in vitro endothelial barrier function was evaluated by measuring the transendothelial electrical resistance (hereinafter, sometimes referred to as “TER”) of the HUVECs prepared in the above item (1) over time. Specifically, the transendothelial electrical resistance was measured using an xCELLigence Real-Time Cell Analyzer DP system (manufactured by Roche). The system monitors changes in TER across an interdigitated microelectrode at the bottom of tissue culture E-plates (manufactured by Roche). The HUVECs (8,000 cells) were plated on the E-plates and incubated until confluent. Then, the following operation (a) or (b) was performed.\n(a) Each reagent was added to plates on which the HUVECs were cultured, so as to give a vehicle, 1 U/mL thrombin, 1 μM forskolin, or 0.1 μM or 0.3 μM 5,6-DiHETE (FIGS. 4A and 4B).\n(b) A vehicle or […] was added to plates on which the HUVECs were cultured, so as to attain 10 μM. […] Thirty (30) minutes after the addition, 10 μM histamine was added to each plate 30 minutes after the addition (FIGS. 4C and 4D).\nIn the above operations (a) and (b), the TER was measured every 60 seconds. For normalization, the cell index value at each time point is shown as a ratio relative to the initial value. The maximum normalized cell index after stimulation was quantified and represented as maximal response. Note that it is known that the disruption of the endothelial barrier function lowers the TER, but that the enhancement of the endothelial barrier function increases the TER."}, "[2]": {"system": "NO production in HUVECs", "assay": "Histamine-induced NO production (nitrite and nitrate)", "format": "cell-based, human", "conditions": "pretreatment 0.1 μM, 15 minutes; histamine 10 μM", "protocol": "as §1\nThe HUVECs were washed three times with HEPES and incubated in HEPES supplemented with 1 mM L-arginine and 10 μM tetrahydrobiopterin. After equilibration for 30 minutes, the medium was exchanged, and the cells were incubated for additional 30 minutes. […] The conditioned media before and after the stimulation (100 μL each) were collected and centrifuged in each amount of 300 g for 3 minutes. The supernatants were collected, and used to measure nitrite and nitrate, as stable metabolites of NO, by an ENO-20 NOx analyzer (manufactured by Eicom Corporation). The degrees of increases of nitrite and nitrate levels after the stimulation were normalized with cellular protein contents."}, "[3]": {"system": "calcium ion concentration in HUVECs", "assay": "Histamine-induced increase of calcium ion concentration (fura-2)", "format": "cell-based, human", "conditions": "histamine 10 μM", "protocol": "These cells (passages 4 to 9) were used for experiments after 4-hour starvation in EBM-2 (manufactured by Lonza K.K.) containing 2% FBS.\nHUVECs were incubated with a calcium fluorescence indicator (3 μg fura-2/AM containing 0.11% Cremophor EL) for 30 minutes and washed with an HEPES buffer three times. […] Then, 5 minutes after the addition of each reagent, histamine was added so as to attain 10 μM. In addition, a group to which histamine was added so as to attain 10 μM without pretreatment was also prepared. A cover slip was placed in a specialized airtight chamber mounted onto the stage of a microscope maintained at 37° C. The HUVECs were excited at 340 nm and 380 nm and the emitted fluorescence signal was measured every 3 seconds at 510 nm for 60 seconds. The fluorescence ratio (R:F340/F380) was determined using a fluorescence imaging system (AQUACOSMOS, manufactured by Hamamatsu Photonics K.K.). After the experiment, 1 μM ionomycin was added and the fluorescence changes were measured in the presence of 0 or 1.5 mM calcium ions. The calcium ion concentration was indicated as A fluorescence ratio. AUC was calculated 1 minute after each stimulus to evaluate the A fluorescence ratio. It is known that the increase of calcium ion concentration in endothelial cells promotes NO production by eNOS phosphorylation and […] smooth muscle cells (Garcia-Cardena, G. et al., Nature, 392: 821-824(1998); and Luo, Z. et al., The Journal of clinical investigation, 106: 493-499(2000))."}, "[4]": {"system": "anaphylaxis model mice", "assay": "Histamine-induced anaphylaxis: blood pressure and body temperature", "format": "in vivo, mouse (C57BL/6)", "conditions": "50 μg/kg intravenously 15 minutes before histamine 50 mg/kg", "protocol": "Histamine (50 mg/kg) lysed in a physiological saline solution was intravenously administered to C57BL/6 strain mice (male, 8 to 12 weeks old) to prepare anaphylaxis model mice (hereinafter, sometimes referred to as “anaphylaxis group”). […] L-NAME is an NO synthesis inhibitor. As indices of anaphylactic symptoms, a body temperature decrease and a blood pressure decrease were observed."}, "[5]": {"system": "histamine-induced vascular permeability in mouse ears", "assay": "Modified Miles assay: histamine-induced vascular hyperpermeability (Evans blue extravasation)", "format": "in vivo, mouse (C57BL/6)", "conditions": "pretreatment 0.1 μg/ear, 15 minutes, before 400 μg histamine", "protocol": "Fifteen (15) minutes after the intracutaneous injection, a vehicle (80% acetone) or histamine (400 μg, manufactured by Molecular Probes) was percutaneously administered to the ventral surface of the ears. To evaluate vascular permeability, Evans blue (50 mg/kg, manufactured by Sigma) was injected intravenously 5 minutes after the administration of histamine. The mice were then euthanized by cervical dislocation 30 minutes after the injection of Evans blue. The ears were dissected, dried at 55° C., and weighed. Extravasated Evans blue present in the ears was extracted in formamide (manufactured by Molecular Probes), and quantified spectrophotometrically (manufactured by PerkinElmer Japan Co., Ltd.) at a wavelength of 610 nm."}}}
{"smiles": "CC/C=C\\C/C=C\\C/C=C\\C/C=C\\C[C@@H](O)[C@@H](O)CCCC(=O)O", "note": "(racemic) [5,6-DiHETE, (±) 5,6-dihydroxy-8Z,11Z,14Z,17Z-eicosatetraenoic acid]", "values": [{"measurement": "change of TER", "setting": "[1]; 0.1 μM and 0.3 μM, alone", "result": "did not change the TER"}, {"measurement": "TER, minimum (normalized cell index)", "setting": "[1]; pretreatment 0.3 μM, 15 minutes, before histamine 10 μM", "result": "0.915±0.012", "unit": "fold"}, {"measurement": "histamine-induced NO production", "setting": "[2]", "result": "0.11±0.06", "unit": "pmol/μg protein"}, {"measurement": "calcium ion concentration, AUC at 1 minute after stimulation", "setting": "[3]; pretreatment 0.03 μM", "result": "7.8±2.3"}, {"measurement": "calcium ion concentration, AUC at 1 minute after stimulation", "setting": "[3]; pretreatment 0.1 μM", "result": "5.9±1.5"}, {"measurement": "calcium ion concentration, AUC at 1 minute after stimulation", "setting": "[3]; pretreatment 0.3 μM", "result": "1.8±1.1"}, {"measurement": "blood pressure", "setting": "[4]", "result": "93.3±4.9", "unit": "mmHg"}, {"measurement": "body temperature decrease", "setting": "[4]", "result": "−0.2±0.1", "unit": "°C"}, {"measurement": "dye extravasation (Evans blue) in ear", "setting": "[5]", "result": "0.06 ± 0.02", "unit": "µg/mg"}]}
